{"source": "patent US20250360106A1", "about": "“PREVENTING IMMUNOTHERAPY-INDUCED EDEMA USING ANGIOTENSIN RECEPTOR BLOCKERS” (The General Hospital Corporation, priority 2022, published 2025)", "key": {"[1]": {"tested_on": "GL261", "assay": "Solid stress by 3D micro-ultrasound tissue deformation, GL261", "type": "in vivo, mice", "conditions": "2 weeks of losartan, n=4", "from_the_text": "Tumor size was visualized by 3D micro-ultrasound in anesthetized mice through the transparent cranial windows (45). Ultrasound was also used to measure tumor deformation as a readout of solid stress, following previous methods (14)."}, "[2]": {"tested_on": "PD-L1", "assay": "PD-L1 immunohistochemistry, GL261", "type": "in vivo, mice", "conditions": "2 weeks of losartan, n=11-13", "from_the_text": "(§1) Brains with tumors were prepped and stained for histology as previously described (45) and imaged on a TissueFAXS (TissueGnostics) slide scanner at the Ragon Institute, Massachusetts Institute of Technology."}, "[3]": {"tested_on": "GL261 tumors", "assay": "Tumor edema by wet/dry weight (water content), GL261 model", "type": "in vivo", "conditions": "mice under anti-PD1 treatment", "protocol": "(§2) Edema in the tumor was assessed immediately after animal sacrifice via wet/dry weight analysis to determine the water content as previously described (43)."}, "[4]": {"tested_on": "GBM", "conditions": "in combination with the standard of care; cited from earlier work"}, "[5]": {"tested_on": "GL261 tumors", "assay": "Flow cytometry of tumors and cervical draining lymph nodes, GL261", "type": "in vivo, mice"}, "[6]": {"tested_on": "CT2A", "assay": "Survival study, CT2A model", "type": "in vivo, mice", "protocol": "(§3) Brain tumor implantation in the forebrain (50,000-100,000 cells), cranial window surgery and tumor resection as part of the standard of care treatment regimen were conducted as previously described (16, 43, 45). Mice were allowed to recover for 10-14 days after cranial window surgery prior to tumor implantation, and for 2 days after resection surgery (as part of the standard of care or bihemispheric model) prior to treatment initiation."}, "[7]": {"tested_on": "GL261", "assay": "Survival study, GL261 model", "type": "in vivo, mice", "conditions": "losartan with anti-PD1, no detectable tumors over 100 days", "protocol": "as §3"}, "[8]": {"tested_on": "glioblastoma", "assay": "Survival of mice with glioblastoma under losartan and ICB (summary statement)", "type": "in vivo", "conditions": "losartan with ICB, in lieu of corticosteroids"}, "[9]": {"tested_on": "005 GSC", "assay": "Survival study, 005 GSC model", "type": "in vivo, mice", "conditions": "losartan with anti-PD1, no detectable tumors over 100 days", "protocol": "as §3"}, "[10]": {"tested_on": "MT-MMP-1 and -2 (Mt1, Mt2)", "assay": "scRNASeq of tumor endothelial cells (TECs) from GL261 tumors", "type": "in vivo, mice", "protocol": "Following the single-cell suspension techniques of flow cytometry, tumor cells were blocked in 1% bovine serum albumin in phosphate-buffered saline solution (1% BSA/PBS). Cell suspensions were subsequently stained for flow cytometry for 30 min at 4° C. using antibodies specific for CD45 [30F11]-VioBlue from Miltenyi, CD3 [145-2C11]-PE from Biolegends, and CD 31 [MEC 13.3]-PE from BD Biosciences. Cells were washed with cold PBS, and then incubated for 15 min in 1.5 mL of 1% BSA/PBS containing 1 uM calcein AM (Life Technologies) and 0.33 uM TO-PRO-3 iodide (Life Technologies). Sorting was performed with the FACS Aria Fusion Special Order System (Becton Dickinson) using 488 nm (calcein AM, 530/30 filter; CD3-PE, 585/42 filter), 640 nm (TO-PRO-3, 670/14 filter), and 405 nm (CD45-VioBlue, 450/50 filter) lasers. […]\nSequencing data was processed from raw reads to gene expression matrices, starting with fbcl2fastq (v2.20.0) to generate demultiplexed FASTQ files. Bowtie was used to align the resulting paired-end scRNA-seq reads to the mouse transcriptome (mm10). Gene expression levels were quantified as transcripts-per-million (TPM) by running RSEM (v1.2.19) in paired-end mode. […]"}, "[11]": {"tested_on": "GL261 tumors", "assay": "Bulk RNASeq of GL261 tumors", "type": "in vivo, mice"}, "[12]": {"tested_on": "GL261", "assay": "Survival study, GL261 model with standard of care (resection, radiation, temozolomide)", "type": "in vivo, mice", "protocol": "as §3"}, "[13]": {"tested_on": "GL261 tumor blood vessels", "assay": "OCT imaging of tumor perfusion", "type": "in vivo, mice", "conditions": "vs PBS-treated controls", "from_the_text": "In vivo imaging of perfused vessels was achieved via a custom-built optical coherence tomography (OCT) system as previously described (15). […] A depth-resolved profile was generated each day, and the raw tomograms were processed as previously described. Images across multiple days were co-registered using the Scale-invariant feature transform (SIFT) algorithm in ImageJ and Python."}, "[14]": {"tested_on": "005 GSC", "assay": "Tumor edema by wet/dry weight, 005 GSC model", "type": "in vivo, mice", "conditions": "after 2 weeks of treatment", "protocol": "as §2"}, "[15]": {"tested_on": "hyaluronic acid (HA)", "assay": "Hyaluronic acid immunofluorescent imaging, GL261", "type": "in vivo, mice", "conditions": "2 weeks of losartan, n=5", "from_the_text": "as §1"}, "[16]": {"tested_on": "GBM patients", "assay": "Patient overall survival, Kaplan-Meier (trial NCT00662506)", "type": "in vivo, human", "conditions": "cediranib, patients not on ASIs; n=33"}, "[17]": {"tested_on": "recurrent GBM patient", "assay": "MR T2-FLAIR imaging of a recurrent GBM patient before and after anti-PD-L1", "type": "in vivo, human", "conditions": "after 4 months of anti-PD-L1 treatment; NCT02336165"}, "[18]": {"tested_on": "GBM patients", "conditions": "human, in vivo; cited from earlier work"}, "[19]": {"tested_on": "GBM cells", "conditions": "at physiological levels; cited from earlier work"}, "[20]": {"conditions": "GL261, standard of care + anti-PD1 + losartan"}}, "note": "Entries after “also recorded” stand apart in the source; their conditions may differ."}
{"compound": "CCCCc1nc(Cl)c(CO)n1Cc1ccc(-c2ccccc2-c2nn[nH]n2)cc1", "note": "[losartan]", "values": [{"measurement": "solid stress (tissue deformation)", "setting": "[1]", "value": "reduces"}, {"measurement": "PD-L1 protein expression", "setting": "[2]", "value": "reduces"}, {"measurement": "anti-PD1-induced edema", "setting": "[3]", "value": "decreases anti-PD1-induced edema"}, {"measurement": "median OS", "setting": "[4]", "value": "failed to improve median OS"}, {"measurement": "myeloid cells in tumors", "setting": "[5]", "value": "fewer myeloid cells"}, {"measurement": "effect of adding losartan to anti-PD1 on survival", "setting": "[6]", "value": "failed to further enhance ICB efficacy"}, {"measurement": "long-term survivors (LTS)", "setting": "[7]", "value": 15, "unit": "%"}, {"measurement": "mice cured", "setting": "[8]", "value": 20, "unit": "%"}, {"measurement": "long-term survivors (LTS)", "setting": "[9]", "value": 22, "unit": "%"}, {"measurement": "TEC MT-MMP-1 and -2 (Mt1, Mt2) expression", "setting": "[10]", "value": "downregulating"}, {"measurement": "global and pro-tumor (M2-like) TAM-associated genes", "setting": "[11]; bulk RNASeq", "value": "reduced the expression"}, {"measurement": "microglia-associated genes", "setting": "[11]; bulk RNASeq", "value": "upregulated"}, {"measurement": "gene expression related to ECM, angiogenesis, immunosuppression, and hypoxia", "setting": "[11]; vs controls, n=3", "value": "significantly reduced"}, {"measurement": "OS under the standard of care without ICB", "setting": "[12]; GBM mouse models, losartan not given in conjunction with ICB", "value": "does not improve OS"}, {"measurement": "long-term survivors", "setting": "[12]; [20]", "value": 43, "unit": "%"}, {"measurement": "tumor re-challenge of long-term survivors", "setting": "[12]; [20]", "value": "rejected tumor re-challenge"}, {"measurement": "mice cured", "setting": "[12]; losartan with ICB in combination with standard of care treatment", "value": 40, "unit": "%"}, {"measurement": "tumor vessel normalization and perfusion", "setting": "[13]", "value": "greater overall perfusion"}, {"measurement": "anti-PD1-induced edema", "setting": "[14]", "value": "decreases anti-PD1-induced edema"}, {"measurement": "HA levels", "setting": "[15]", "value": "reduces"}]}
{"compound": "COc1cc2c(Oc3ccc4[nH]c(C)cc4c3F)ncnc2cc1OCCCN1CCCC1", "note": "[cediranib]", "values": [{"measurement": "overall survival", "setting": "[16]", "value": 527, "unit": "days"}]}
{"compound": "MEDI4763: anti-PD-L1 (NCT02336165) given to a recurrent GBM patient", "values": [{"measurement": "edema on MR T2-FLAIR images", "setting": "[17]", "value": "increased edema"}]}
{"compound": "bevacizumab", "values": [{"measurement": "OS in GBM patients under ICB therapy", "setting": "[18]", "value": "failed to improve OS"}]}
{"compound": "CNC(=O)[C@H](Cc1c[nH]c2ccccc12)NC(=O)[C@@H](CC(=O)NO)CC(C)C", "note": "[Ilomastat]", "values": [{"measurement": "anti-PD1-induced edema", "setting": "[3]", "value": "controls anti-PD1-induced edema comparably to losartan; also recorded: phenocopied the ability of losartan to prevent anti-PD1-induced edema"}, {"measurement": "toxicity to GBM cells", "setting": "[19]", "value": "non-toxic"}]}
